*1 amine or outer side, *2 acyl side, *3 side chain or, on linkers, in order; H or OH if unused. Where a SMILES comes first, the peptide text is derived from it. Bridges are numbered along the chain shown (N, C = ends). [ ]: non-standard residue; d: D form. The star is where a group is joined. X1 = NC1=N[C@@H]([C@H](N[*:1])C(=O)[*:2])C[C@H](O)N1; ΔAla(Z-3-ureido) = NC(=O)N/C=C(\N)C(=O)O; β3hOrn = NCCC[C@H](N)CC(=O)*; Dap = NC[C@H](N)C(=O)O
Columns and labels:
[1] = tested on: Pf 16S rRNApl (plastid ribosomes); experiment: Puromycin shift of polysomes on sucrose gradients, plastid rRNA probe; type: biochemical, Plasmodium falciparum; details: 2 mM puromycin; anisomycin 3 mM pre-treatment
Description: (§1) Polysome preparation and puromycin shift—P.falciparum was grown in blood cultures (Trager et al 1976) and ribosomes prepared as described (Sherman et al 1975). Parasitized erythrocytes were lysed for 1 hr on ice in a buffer containing 0.14% Nonidet P-40 (Trade Name), 25 mM KCl, 10 mM MgCl2, 380 mM-sucrose, 6.5 mM β-mercaptoethanol and 50 mM Tris HCl, pH 7.6. The lysate was centrifuged×3 at 10,000 g for 10 min at 4° C. to remove genomic DNA and other cell debris before further centrifugation at 105,000 g for 1 hr in an SW40 rotor (Trade Name, Beckman) at 4° C. The resulting pellet was resuspended in 25 mM KCl, 5 mM MgCl2 and 50 mM Tris HCl (pH 7.6) and homogenized by hand (×50 strokes) with a glass dounce homogenizer (Wheatstone, USA). The suspension was centrifuged at 10,000 g for 10 min at 4° C. and the crude pellet discarded before further centrifugation for 2 hr at 105,000 g in an SW55 rotor (Beckman) at 4° C. The pellet was resuspended in 10 mM Tris HCl, 10 mM MgCl2, 100 mM KCl and homogenized again to give a suspension of ribosomes. […]
(§2) In an experiment with RNase (Cox 1969), total polysomes were incubated with a range of concentrations of RNase (1-13 ng ml^−1 ribosomes, Boehringer) prior to centrifugation for 30 min at 26° C. […] Hybridization signals were quantitated using a Molecular Dynamics phosphor imager. […]

[2] = tested on: Pf 28S cytosolic rRNA (cytosolic ribosomes); experiment: Puromycin shift of polysomes on sucrose gradients, cytosolic rRNA probe; type: biochemical, Plasmodium falciparum; details: 2 mM puromycin; anisomycin 3 mM pre-treatment
Description: as §1, §2

[3] = in vivo; cited from earlier work
[4] = tested on: erythrocytic stages of P.falciparum; experiment: Incorporation of radiotracers (3H-hypoxanthine, 14C-isoleucine) by P.falciparum growing in blood cultures; type: cell-based, Plasmodium falciparum; details: for concentration at which maximum inhibition of radiotracer incorporation was achieved: cultures over a 36 hr period
Description: Antibiotics—Samples of Mocimycin (kirromycin), Aurodox (N-methylated kirromycin), and Efrotomycin (a glycoside of kirromycin) were used. Aurodox was dissolved in RPMI-Albumax medium (Grande et al 1977), kirromycin was dissolved in RPMI made alkaline by addition of 1M NaOH, and efrotomycin was dissolved in ethanol before dilution in culture medium. Enacyloxin IIA was dissolved in 1% NaHCO3 prior to dilution in RPMI-Albumax medium. The antibiotic GE2270A was dissolved in 100% DMSO before dilution in culture medium. Fusidic acid (Sigma) was dissolved directly in culture medium, and thiostrepton (Sigma) in 100% DMSO before dilution in culture medium. A hemisuccinate form of thiostrepton was prepared as a potassium salt, according to Bodanszky et al 1965. Incorporation of radiotracers by P.falciparum growing in blood cultures in the presence and absence of drugs was carried out as described (Strath et al 1993).
(§3) Kirromycin: Kirromycin-resistant forms of bacterial EF-Tu are modified at one of seven amino acids along the opposing interfaces of domains I and III (Mesters et al 1994 and Abdulkarim et al 1994) and Pf EF-Tupl has a substitution at one of these sites (A375S-E.coli numbers) that could potentially confer resistance to kirromycin. To test this possibility, kirromycin (Mocimycin), its methylated derivative Aurodox or its disaccharide derivative Efrotomycin were incubated with erythrocytic stages of P.falciparum grown in cultures over a 36 hr period. The incorporation of both ^3H-hypoxanthine and ^14C-isoleucine was inhibited in a dose-dependent fashion, maximum inhibition being achieved at 100 μM kirromycin (FIG. 5). […] Once maximal depression of incorporation had been reached at any particular dose of drug, residual incorporation continued at a uniform rate thereafter. Vital staining with rhodamine 123, a fluorescent dye that concentrates within the mitochondrion (Divo et al. 1985) confirmed the parasiticidal effect, loss of specific mt staining being evident within 2-3 hours (data not shown). […] Blood cultures of P.falciparum were about 10 times more sensitive to the antibiotic than a gram-positive bacterium (Corynebacterium spp) used in parallel bioassays.

Corynebacterium spp = experiment: Parallel bioassay with a gram-positive bacterium; type: cell-based; details: parallel bioassays
Description: as §3

P.falciparum [5] = experiment: Treatment of parasites, removal of antibiotic by washing and 2 weeks follow-up in vitro; type: cell-based, Plasmodium falciparum; details: 1 mM for 1.5 cell cycles, washing, follow-up for 2 weeks in vitro
P.chabaudi = experiment: Mice infected with P.chabaudi; type: in vivo; details: for development of the infection in mice: intraperitoneally 0.1 ml of 100 mM
Description: The solid line is for aurodox, the dotted line is for mocimycin and the dashed line is for no drug controls. The arrows on the x-axis indicate days on which three 0.1 ml 100 mM ip injections were given.
On the basis of these findings, preliminary studies were carried out on mice infected with P.chabaudi. In the first experiment, mice were infected and inoculated on the same day intraperitoneally with 0.1 ml of 100 mM Aurodox, a dose calculated to mimic the maximal inhibitory effect observed in vitro. […] In a single experiment.

P.falciparum [6] = experiment: Vital staining with rhodamine 123 (mitochondrial staining of parasites); type: cell-based, Plasmodium falciparum; details: data not shown
Description: as §3

[7] = molecular target: T1, heterologously expressed Pf EF-Tupl (Plasmodium falciparum, UniProt Q25820); experiment: Band shift in native polyacrylamide gel with expressed Pf EF-Tupl; type: binding; details: 100 μM antibiotic, 100 μM GDP, native 12% polyacrylamide gel
T1 construct: one clone in JM109 contained the complete insert; GST (cleaved yes); made in house; host or cells: E. coli JM109 (pGEX)
T1 sequence (Q25820 whole entry): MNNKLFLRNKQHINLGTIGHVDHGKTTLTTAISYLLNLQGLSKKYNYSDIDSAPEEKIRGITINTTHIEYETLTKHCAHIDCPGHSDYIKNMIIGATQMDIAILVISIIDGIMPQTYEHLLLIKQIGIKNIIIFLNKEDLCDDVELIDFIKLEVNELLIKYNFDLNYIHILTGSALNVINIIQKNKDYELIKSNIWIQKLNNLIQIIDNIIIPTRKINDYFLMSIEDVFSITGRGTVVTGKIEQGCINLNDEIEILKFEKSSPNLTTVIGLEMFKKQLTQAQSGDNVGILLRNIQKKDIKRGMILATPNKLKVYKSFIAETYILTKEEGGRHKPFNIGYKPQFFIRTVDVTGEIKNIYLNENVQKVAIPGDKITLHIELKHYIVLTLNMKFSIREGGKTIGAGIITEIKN
Description: FIG. 13 contains immunoblots showing that binding of antibiotics modifies migration of EF-Tu.GDP in native polyacrylamide gels. Two segments of the same gel show A) heterologously expressed Pf EF-Tupl protein detected with a malaria peptide-specific antibody and B) E.coli EF-Tu detected with a specific antibody (Breidenbach et al 1990). Lanes without antibiotics (1 and 5), lanes with 100 μM antibiotic: GE2270A (2 and 6), enacyloxin lla (3 and 7), kirromycin (4 and 8). Arrows indicate uncomplexed EF-Tu.
Drug binding—Thiostrepton binding to short rRNA transcripts generated in vitro was assayed according to Ryan et al 1991, as modified by Clough et al 1997. […] Before […], samples were incubated on ice for 15 mins in 50 mM imidazole acetate (pH 7.6), 10 mM NH4Cl, 10 mM MgCl2, 1 mM […] and 100 μM GDP, in a final volume of 20 μl.
The material tufA gene in pGEX was expressed as an insoluble fusion protein in E.coli JM 109. The protein was detected either with antibodies to the GST tag or with antibodies to a specific peptide sequence in domain I ([…]) not found on E.coli EF-Tu. Washed inclusion bodies were dissolved and refolded by dilution (Lin et al 1991).

eukaryotic cells = details: at 100 μM; cited from earlier work
[8] = 3H-hypoxanthine and 14C-isoleucine

## COc1ccc(C[C@H](N)C(=O)N[C@H]2[C@@H](O)[C@H](n3cnc4c(N(C)C)ncnc43)O[C@@H]2CO)cc1 [puromycin]
[1]
  puromycin-shift of the hybridization signal, plastid rRNA: caused a shift
[2]
  puromycin-shift of the hybridization signal, cytosolic rRNA: caused a shift

## C/C=C/C=C/[C@@H]1O[C@](O)([C@H](CC)C(=O)NC/C=C/C=C(\C)[C@@H](OC)[C@@H](C)[C@@H]2O[C@H](/C=C/C=C/C=C(\C)C(=O)c3c(O)ccn(C)c3=O)[C@H](O)[C@@H]2O)[C@H](O)[C@H](O[C@@H]2O[C@H](C)[C@@H](O[C@@H]3O[C@@H](C)[C@H](OC)[C@@H](O)[C@H]3OC)[C@@H](OC)[C@H]2O)C1(C)C [Efrotomycin]
[3]
  oral absorption and plasma half-life: rapid oral absorption and prolonged plasma half-life

## COc1ccc(C[C@H]2NC[C@H](O)[C@H]2OC(C)=O)cc1 [anisomycin]
[2]
  puromycin-shift of the hybridization signal, cytosolic rRNA: blocked the puromycin-induced shift

## C/C=C\C=C\[C@@H]1O[C@](O)([C@H](CC)C(=O)NC/C=C/C=C(\C)[C@@H](OC)[C@@H](C)[C@@H]2O[C@H](/C=C/C=C/C=C(\C)C(=O)c3c(O)ccn(C)c3=O)[C@H](O)[C@@H]2O)[C@H](O)[C@H](O)C1(C)C [Aurodox, 1-methylmocimycin]
[4]; synchronized cultures
  first inhibitory effects on ring stage parasites, time after exposure: as early as five hours
[4]; synchronized cultures, ring stage parasites
  inhibitory effects maximal, time of exposure: 10 h
Corynebacterium spp
  sensitivity of P.falciparum blood cultures relative to Corynebacterium spp: about 10 times
P.falciparum [5]
  parasite death or stasis: parasite death rather than stasis
P.chabaudi
  development of the infection in mice: lag in development of the infection compared with untreated controls
P.falciparum [6]
  loss of specific mt staining evident, time: 2 to 3 h

## NCCC[C@H](N)CC(=O)N[C@H]1CNC(=O)[C@H]([C@H]2C[C@H](O)NC(N)=N2)NC(=O)/C(=C/NC(N)=O)NC(=O)[C@H](CO)NC(=O)[C@H](CO)NC1=O [viomycin] (β3hOrn-[Dap]SS[ΔAla(Z-3-ureido)][X1]; lactam 1-C)
[4]; data not shown
  effect on P.falciparum (specificity control): lack of effect

## CC/C=C/C(OC(N)=O)C(Cl)C(O)CC(=O)C(O)C(O)C(C)/C(Cl)=C/C=C/C=C(C)/C=C/C=C/C(=O)O[C@@H]1C[C@@H](C(=O)O)CC[C@@H]1O (some centres unmarked) [Enacyloxin IIa]
[7]
  mobility (Mr) of the GDP form of the EF-Tu complex: increased

## CC(=O)O[C@H]1C[C@@]2(C)[C@@H](C[C@@H](O)[C@H]3[C@@]4(C)CC[C@@H](O)[C@@H](C)[C@@H]4CC[C@@]32C)/C1=C(\CCC=C(C)C)C(=O)O [Fusidic acid]
[4]; [8]
  concentration at which maximum inhibition of radiotracer incorporation was achieved: 200 µM
P.chabaudi; even at toxic dose levels, preliminary experiments
  effect on parasitaemias in mice: little effect on parasitaemias

## kirromycin
[4]; [8]
  concentration at which maximum inhibition of radiotracer incorporation was achieved: 100 µM
[7]
  mobility (Mr) of the GDP form of the EF-Tu complex: increased
P.chabaudi
  development of the infection in mice: less effective in vivo than Aurodox
Eukaryotic cells
  effect on RNA, DNA and protein synthesis: blocks RNA synthesis without affecting DNA or protein synthesis

## CNC(=O)C[C@@H]1NC(=O)c2csc(n2)-c2ccc(-c3nc(C4=N[C@H](C(=O)N5CCC[C@H]5C(N)=O)CO4)cs3)nc2-c2csc(n2)-c2csc(n2)[C@H]([C@@H](O)c2ccccc2)NC(=O)CNC(=O)c2nc(sc2COC)[C@H](C(C)C)NC(=O)c2nc1sc2C [GE2270]
[4]; 3H-hypoxanthine and 14C-isoleucine, blood cultures
  inhibition of radiotracer incorporation in blood cultures, compared with other antibiotics: more inhibitory in blood cultures than either kirromycin or thiostrepton
[7]
  mobility (Mr) of the GDP form of the EF-Tu complex: decreased

— patent publication US20020058266A1, “EF-Tu protein encoded on the plastid DNA of the malaria parasite and protein synthesis inhibitors effective as anti-malarial compounds” (priority 1997, published 2002)
